Laboratory results as given in US6551812B1, “Compositions and methods relating to the peroxisomal proliferator activated receptor-α mediated pathway” (CuraGen Corporation, priority 1998, dated 2003).
Read-outs that look alike come from different tables or passages of the source.

How the values were obtained:
CYP2B1 [1] = settings: rat hepatocytes; cited from earlier work
GSTa isoform = settings: rat livers, precancerous change; cited from earlier work
acetyl CoA carboxylase = settings: co-incubation of hepatocytes with ligand; cited from earlier work
[2] = test system: genes responsive to PPARαL treatment in rat liver; assay: GENECALLING differential gene expression analysis of liver from rats treated with PPARα ligand GW9578 vs vehicle control; type: in vivo
Experimental: The present invention is based in part on the discovery of changes in expression patterns of multiple nucleic acid sequences, including sequences encoding known genes as well as heretofore undescribed nucleic acid sequences, in rodent liver cells following exposure to a ligand for a PPARα. The differences in gene expression were identified following administration of 1.5 mg/kg/day of a PPARα-specific ligand named GW9578. This compound is described in Brown et al., J. Med. Chem.42:3785-8, 1999, whose contents are incorporated herein in their entirety.
GW9578 was administered to male 10-14 week old Sprague Dawley rats in b.i.d. dosing for 3 days. The animals were sacrificed 24 hours following the last dose, and liver tissue was analysis using the GENECALLING® sequence identification methods described U.S. Pat. No. 5,871,697. The contents of this application are incorporated herein by reference in their entirety.
The GENECALLING® sequence identification method is performed by digesting a cDNA with a pair of restriction endonucleases. The digested fragments are differentially tagged at both the 3- and 5′-termini, and amplified via polymerase chain reaction (PCR) with a fluorescent label that is detected upon subsequent electrophoresis. In the studies with PPARα ligand GW9578, a total of 48 different reactions were performed, each with a unique pair of restriction enzymes. […] This number represents a non-redundant coverage of approximately 85% of the total number of hepatic genes.
The hepatic response to treatment with the PPARαL compound was determined by comparing in triplicate the relative abundance of each of the 8973 gene fragments in the PPARαL-treated vs. the PPARα-untreated rodents. Comparison was performed using commercially available GENESCAPE® expression analysis software. PPARαL administration detectably altered the expression of 218 of the 8973 (2.4%) hepatic genes fragments by greater than 1.5-fold. […] Novel genes, corresponding to fragments with no match within the database, were subsequently isolated and sequenced (FIG. 4). […] There was an excellent correlation between the expression analysis results derived by the GENECALLING® sequence identification methods in comparison with those results previously obtained by the use of reverse transcriptase-based PCR (“RT-PCR”) (See FIG. 3).
Harlan Sprague Dawley rats 10-14 weeks old were treated with oral tablet doses of: (i) PPARαL in an n-methylglucamine carrier twice daily (b.i.d) for a total of 3 days (3 rats total) or (ii) PPARαL in an n-methylglucamine carrier twice daily (b.i.d.) for a total of 3 days (3 rats total) or (iii) the n-methylglucamine carrier alone twice daily (b.i.d.) for a total of 3 days (3 rats total). On the fourth day, approximately 12 hours following the last dose of drug the animals were sacrificed. Liver and adipose tissue were harvested from all animals and snap frozen in liquid nitrogen.
Total cellular RNA was isolated with Trizol (GIBCO-BRL; Baltimore Md.) using a one-tenth volume of bromochloropropane (Molecular Research Corp.; Cincinnati, Ohio) to facilitate phase separation. Contaminating DNA was removed by treatment with DNase I (Promega Biotech; Milwaukee, Wis.) in the presence of 0.01 M DTT (GIBCO-BRL; Baltimore, Md.) and 1 Unit/1 RNAsin (Promega Biotech; Milwaukee, Wis.). Following phenol/chloroform extraction, RNA quality was evaluated by spectrophotometry and formaldehyde agarose gel electrophoresis, and RNA yield was estimated by fluorometry with OliGreen® (Molecular Probes; Eugene, Oreg.). Poly(A)^+ RNA was prepared from […] of total RNA by use of oligo(dT) paramagnetic beads (PerSeptive Biosynthesis; Boston, Mass.), and quantitated with fluorometry.
First strand cDNA was prepared from […] of poly(A)^+ RNA with 200 pmoles oligo(dT)25V (where V=A, C or G) (PerSeptive Biosynthesis; Boston, Mass.) using 40 Units of SuperScript II reverse transcriptase (GIBCO-BRL; Baltimore, Md.). […]

Histidine decarboxylase = settings: rat stomach; cited from earlier work
CYP2B1 [3] = settings: in vivo mouse model; cited from earlier work
[4] = rat liver, 1.5 mg/kg/day b.i.d. 3 days, vs vehicle control
[5] = rat liver, treatment with PPARαL
[6] = rat liver, upon treatment with PPARα ligand

## CC(C)(Oc1ccc(Cl)cc1)C(=O)O [clofibric acid]
CYP2B1 [1]
  gene encoding CYP2B1, expression: upregulated

## CC(C)(Oc1ccc(C2CCCc3ccccc32)cc1)C(=O)O (stereo not shown) [nafenopin]
GSTa isoform
  GSTa isoform level: decrease
Acetyl CoA carboxylase
  acetyl CoA carboxylase activity: reduced

## CCCCCCCN(CCc1ccc(SC(C)(C)C(=O)O)cc1)C(=O)Nc1ccc(F)cc1F [GW9578]
[2]; 1.5 mg/kg/day, b.i.d. for 3 days, male Sprague Dawley rats, liver, treated vs untreated, triplicate
  number of the 8973 hepatic gene fragments whose expression was altered by greater than 1.5-fold: 218
[2]; [4]
  D-aminolevulinate synthetase up-regulation: 4 fold
  acetoacetyl-CoA thiolase upregulation: 100 fold
  acetyl-CoA-decarboxylase modulation: +2 fold
  apolipoprotein A-I modulation: −2 fold
  carnitine octanoyl transferase upregulation: 4 fold
  catalase upregulation: 12 fold
  down-regulation of metallothionein 1: 100 fold
  epoxide hydrolase upregulation: 10 fold
  novel isoform of acyl-CoA oxidase upregulation: 10 fold
  porphobilinogen deaminase up-regulation: 60 fold
  reduction in steroid 3-α-dehydrogenase transcript levels: 60 fold
  steroid 3-delta-dehydrogenase modulation: off
  very long chain acyl CoA synthetase upregulation: 4 fold
[2]; rat liver, following PPARα ligand treatment
  novel gene similar in sequence to mouse carnitine acetyltransferase, expression: moderately upregulated
[2]; rat liver, following exposure to PPARα ligand
  histidine decarboxylase gene upregulation: six
[2]; [5]
  17-α-hydroxysteroid dehydrogenase IV transcription: up-regulated
  genes encoding the other steroid catabolism enzymes (steroid-3-α-dehydrogenase, hydroxysteroid sulfotransferase, CYP p450 M1, SMP-2, UDP-glucosuronyl transferase 21): downregulated
[2]; [6]
  acetyl-CoA carboxylase expression: upregulation
  decrease in expression of the gene for glutathione S transferase Ya subunit: three
  differential regulation of ATP citrate lyase and fatty acid synthase: not detected
  malic enzyme expression: upregulation
  stearyl-CoA desaturase expression: upregulation

## CC(C)(Oc1ccc(C2CC2(Cl)Cl)cc1)C(=O)O (stereo not shown) [ciprofibrate]
Histidine decarboxylase
  histidine decarboxylase expression: upregulated

## CCOC(=O)C(C)(C)Oc1ccc(Cl)cc1 [clofibrate]
CYP2B1 [3]
  gene encoding CYP2B1, expression: not been observed to change
